Measured values taken from patent US20130039928A1, “COMPOSITIONS AND METHODS FOR REVERSING CORTICOSTEROID RESISTANCE OR TREATING RESPIRATORY INFECTIONS” (priority 2010, published 2013).

System: Pseudomonas aeruginosa
Experiment: Bacterial clearance by THP-1 macrophages
Format: cell-based
Conditions: after exposure with Poly(I) (10 μg/ml)
Text: The above data collectively indicate that the activation of Nrf2 improves bacterial phagocytosis and clearance by COPD macrophages. The dependence of Nrf2 on bacterial phagocytosis was investigated. […] This observations confirmed Nrf2-dependent modulation of bacterial phagocytosis and clearance. To determine the mechanisms by which Nrf2 regulates phagocytosis, microarray analysis was employed. […] To address whether sulforaphane-induced expression of MARCO correlates with bacterial clearance, differentiated human THP-1 macrophages were used. Bacterial clearance by sulforaphane treated THP-1 macrophages after exposure with polyinosinic acid (Poly(I)) was analyzed. Poly(I) is a non-selective class A scavenger receptor blocker that inhibits MARCO mediated bacterial uptake and clearance (G. M. DeLoid, T. H. Sulahian, A. Imrich, L. Kobzik, PLoS One 4, e6209 (2009)). […] Next, phagocytosis of FITC-Pseudomonas aeruginosa was examined in THP-1 macrophages with knockdown of MARCO using lentivirus-encoded shRNA (MARCO shRNA).
BMDM were isolated by culturing bone marrow cells in the presence of 10 ng/ml granulocyte-macrophage colony-stimulating factor (PeproTech) for 7 days. Murine macrophages were cultured in RPMI 1640 medium supplemented with 10% FBS and 1% penicillin-streptomycin. […]

## polyinosinic acid [Poly(I)]
  bacterial clearance by sulforaphane treated THP-1 macrophages: significantly impaired sulforaphane ability to improve bacterial clearance
